# Patent US6589520B1, “Treatment of psoriasis, allergies and auto-immune disorders of the skin with cis-6-hexadecenoic acid” (Beiersdorf AG, priority 1997, dated 2003)
# Structures can show the parent of a compound that is named as a salt.
# How the values were obtained:
# macrophage = macrophage differentiation test; assay type: cell-based
# From the text: This is of importance in the prophylaxis of processes such as, for example, psoriasis or atopy or allergies or auto-immune disorders.
# solubility in water = assay type: physicochemical
# Procedure: If salts are sparingly soluble in water, they can be administered in the form of suspensions. […] For example, salts are preferably injected intravenously or intramuscularly in the form of an aqueous solution, such as physiological saline solution. The ampoules contain, for example, 2.5 mg of the fatty acid salt per 5 ml of solution. Ampoules containing, for example, 45 mg of fatty acid salt per milliliter of solution can also be prepared.
solubility in water (solubility in water),SMILES,anti-inflammatory macrophage-stimulating potency (macrophage)
,CCCCCCCCC/C=C\CCCCC(=O)O [cis-6-hexadecenoic acid],showed an anti-inflammatory macrophage-stimulating potency
particularly good solubility in water,"CCCCCCC/C=C\CCCCCCCC(=O)O [sodium salt of cis-9-heptadecenoic acid, cis-9-heptadecenoic acid]",
